Measurements as given in US9018214B2, “Bicyclic heterocycle compounds and their uses in therapy” (Astex Therapeutics Limited, priority 2011, dated 2015).
Counter-ions that a name gives are not always drawn. Like-named read-outs stand apart in the source and are kept apart here.

Experiments:
[1] = test system: EVSA-T (human breast carcinoma); assay: Anti-proliferative activity, Alamar Blue assay, EVSA-T; format: cell-based; conditions: Homo sapiens, EVSA-T
[2] = target: BIR3 domain of human cIAP-1 (residues 267-363) (Homo sapiens (Human), UniProt Q13490); assay: cIAP-1 in vitro competitive displacement binding assay (fluorescence polarization; Probe A AVPIK(5&6FAM)-amide or Probe B AbuRPFK(5&6FAM)-amide); conditions: for IC50: read-out: IC50 or PI cIAP1: IC50; for inhibition at 0.01 µM: 3 h, read-out: IC50 or PI cIAP1: PI
[3] = target: BIR3 domain of human XIAP (residues 252-350) (Homo sapiens (Human), UniProt P98170); assay: XIAP in vitro competitive displacement binding assay (fluorescence polarization); conditions: read-out: IC50 or PI Xiap: IC50
[4] = 72 hours, Alamar Blue, read-out: EVSA-T prolif (EC50)
[5] = 72 h, read-out: EVSA-T prolif (EC50)

In the case of `COC[C@H]1CN[C@H](C)CN1CC(=O)N1CC(C)(C)c2cnc(C3=CCCCC3)cc21` [Example 106, 1-[6-(Cyclohex-1-en-1-yl)-3,3-dimethyl-1H,2H,3H-pyrrolo[3,2-c]pyridin-1-yl]-2-[(2R,5R)-2-(methoxymethyl)-5-methylpiperazin-1-yl]ethan-1-one, hydrochloride salt], the EC50 [1, 4] is reported as 440 nM, the IC50 ([2]; Probe B AbuRPFK(5&6FAM)-amide) is reported as 23 nM and the IC50 [3] is reported as 110 nM.
`C[C@@H]1CN(CC(=O)N2CC3(Cc4ccccc4C3)c3ccc(C#N)cc32)[C@@H](C(=O)N2CCOCC2)CN1` [Example 109, 1′-{2-[(2R,5R)-5-Methyl-2-[(morpholin-4-yl)carbonyl]piperazin-1-yl]acetyl}-1,1′,2′,3-tetrahydro-spiro[indene-2,3′-indole]-6′-carbonitrile, hydrochloride salt] gave an EC50 [1, 4] of 4800 nM, an IC50 ([2]; Probe B AbuRPFK(5&6FAM)-amide) of 150 nM and an IC50 [3] of 63 nM.
In the case of `COC[C@H]1CN[C@H](C)CN1CC(=O)N1CC(C)(C)c2cnc(Oc3ccccc3Cl)cc21` [Example 110, 1-[6-(2-Chloro-phenoxy)-3,3-dimethyl-2,3-dihydro-pyrrolo[3,2-c]pyridin-1-yl]-2-((2R,5R)-2-methoxymethyl-5-methyl-piperazin-1-yl)-ethanone, hydrochloride salt], the EC50 [1, 4] is reported as 600 nM, the IC50 ([2]; Probe B AbuRPFK(5&6FAM)-amide) is reported as 35 nM and the IC50 [3] is reported as 75 nM.
Work on `C[C@@H]1CN(CC(=O)N2CC(C)(C)c3ccc(Cc4ccccc4)cc32)[C@@H](C(=O)N2CCOCC2)CN1` [Example 111, 1-(6-Benzyl-3,3-dimethyl-2,3-dihydro-indol-1-yl)-2-[(2R,5R)-5-methyl-2-(morpholine-4-carbonyl)-piperazin-1-yl]-ethanone, hydrochloride salt] yielded an EC50 [1, 4] of 71 nM, an inhibition at 0.01 µM ([2]; Probe B, @ 0.01 μM) of 63% and an IC50 [3] of 74 nM.
With `C[C@@H]1CN(CC(=O)N2CC(C)(C)c3cnc(Cc4ccccc4)cc32)[C@@H](Cn2cccn2)CN1` [Example 112, 1-(6-Benzyl-3,3-dimethyl-2,3-dihydro-pyrrolo[3,2-c]pyridin-1-yl)-2-((2R,5R)-5-methyl-2-pyrazol-1-ylmethyl-piperazin-1-yl)-ethanone] the EC50 [1, 4] was 95 nM, the inhibition at 0.01 µM ([2]; Probe B, @ 0.01 μM) was 69% and the IC50 [3] was 67 nM.
Work on `COC[C@H]1CN[C@H](C)CN1CC(=O)N1CC(C)(C)c2cnc(C3CCCCC3)cc21` [Example 118, 1-{6-Cyclohexyl-3,3-dimethyl-1H,2H,3H-pyrrolo[3,2-c]pyridin-1-yl}-2-[(2R,5R)-2-(methoxymethyl)-5-methylpiperazin-1-yl]ethan-1-one dihydrochloride] yielded an EC50 [1, 5] of 3400 nM, an IC50 [2] of 240 nM and an IC50 [3] of 710 nM.
`COC[C@H]1CN[C@H](C)CN1CC(=O)N1CC2(Cc3ccccc3C2)c2ccc(Cl)cc21` [Example 120, 1-{6′-Chloro-1,1′,2′,3-tetrahydrospiro[indene-2,3′-indole]-1′-yl}-2-[(2R,5R)-2-(methoxymethyl)-5-methylpiperazin-1-yl]ethan-1-one] showed an EC50 [1, 4] of 6800 nM, an IC50 ([2]; Probe B AbuRPFK(5&6FAM)-amide) of 170 nM and an IC50 [3] of 260 nM.
`COC[C@H]1CN[C@H](C)CN1CC(=O)N1CC(C)(C)c2cnc(-c3ccsc3)cc21` [Example 126, 1-[3,3-Dimethyl-6-(thiophen-3-yl)-1H,2H,3H-pyrrolo[3,2-c]pyridin-1-yl]-2-[(2R,5R)-2-(methoxymethyl)-5-methylpiperazin-1-yl]ethan-1-one dihydrochloride] gave an EC50 ([1]; 72 h, read-out: EC50, inhibition of cell growth) of less than 10000 nM, an EC50 [1, 5] of 1800 nM and an IC50 [2] of 86 nM. For the same compound, the IC50 [3] was 380 nM.
With `C[C@@H]1CN(CC(=O)N2CC(C)(C)c3cnc(Cc4ccccc4)cc32)[C@@H](C(=O)N2CCCC2)CN1` [Example 131, 1-{6-Benzyl-3,3-dimethyl-1H,2H,3H-pyrrolo[3,2-c]pyridin-1-yl}-2-[(2R,5R)-5-methyl-2-[(pyrrolidin-1-yl)carbonyl]piperazin-1-yl]ethan-1-one dihydrochloride] the EC50 [1, 5] was 88 nM, the inhibition at 0.01 µM [2] was 63% and the IC50 [3] was 130 nM.
In the case of `C[C@@H]1CN(CC(=O)N2CC(C)(C)c3cnc(Cc4ccccc4)cc32)[C@@H](C(=O)N2CCCCC2)CN1` [Example 133, 1-{6-Benzyl-3,3-dimethyl-1H,2H,3H-pyrrolo[3,2-c]pyridin-1-yl}-2-[(2R,5R)-5-methyl-2-[(piperidin-1-yl)carbonyl]piperazin-1-yl]ethan-1-one dihydrochloride], the EC50 [1, 5] is reported as 110 nM, the inhibition at 0.01 µM [2] is reported as 71% and the IC50 [3] is reported as 91 nM.
In the case of `CCC1(CC)CN(C(=O)CN2C[C@@H](C)NC[C@@H]2C(=O)N2CCOCC2)c2cc(Cl)ccc21` [Example 135, 1-(6-Chloro-3,3-diethyl-2,3-dihydro-1H-indol-1-yl)-2-[(2R,5R)-5-methyl-2-[(morpholin-4-yl)carbonyl]piperazin-1-yl]ethan-1-one hydrochloride], the EC50 [1, 4] is reported as 1600 nM, the IC50 ([2]; Probe B AbuRPFK(5&6FAM)-amide) is reported as 79 nM and the IC50 [3] is reported as 400 nM.
`C[C@@H]1CN(CC(=O)N2CC3(Cc4ccccc4C3)c3ccc(Cl)cc32)[C@@H](Cn2cccn2)CN1` [Example 142, 1-{6′-Chloro-1,1′,2′,3-tetrahydrospiro[indene-2,3′-indole]-1′-yl}-2-[(2R,5R)-5-methyl-2-(1H-pyrazol-1-ylmethyl)piperazin-1-yl]ethan-1-one hydrochloride] showed an inhibition at 1 µM ([1]; at 1 μM, read-out: EVSA-T prolif: % inhibition) of 20%, an IC50 ([2]; Probe B AbuRPFK(5&6FAM)-amide) of 150 nM and an IC50 [3] of 220 nM.
For `C[C@@H]1CN(CC(=O)N2CC(C)(c3ccccc3)c3ccc(C#N)cc32)[C@@H](Cn2cccn2)CN1` (stereo partly drawn) [Example 143, 3-Methyl-1-{2-[(2R,5R)-5-methyl-2-(1H-pyrazol-1-ylmethyl)piperazin-1-yl]acetyl}-3-phenyl-2,3-dihydro-1H-indole-6-carbonitrile hydrochloride], the EC50 [1, 4] was 8800 nM, the IC50 ([2]; Probe B AbuRPFK(5&6FAM)-amide) was 200 nM and the IC50 [3] was 100 nM.
For `COC[C@H]1CN[C@H](C)CN1CC(=O)N1CC(C)(C)c2cnc(-c3ccoc3)cc21` [Example 145, 1-[6-(Furan-3-yl)-3,3-dimethyl-1H,2H,3H-pyrrolo[3,2-c]pyridin-1-yl]-2-[(2R,5R)-2-(methoxymethyl)-5-methylpiperazin-1-yl]ethan-1-one dihydrochloride], the EC50 [1, 5] was 9800 nM, the IC50 [2] was 180 nM and the IC50 [3] was 1000 nM.
`COC[C@H]1CN[C@H](C)CN1CC(=O)N1CC(C)(C)c2cnc(C(F)(F)c3ccccc3)cc21` [Example 146, 1-{6-[Difluoro(phenyl)methyl]-3,3-dimethyl-1H,2H,3H-pyrrolo[3,2-c]pyridin-1-yl}-2-[(2R,5R)-2-(methoxymethyl)-5-methylpiperazin-1-yl]ethan-1-one hydrochloride] gave an EC50 [1, 4] of 640 nM, an IC50 ([2]; Probe B AbuRPFK(5&6FAM)-amide) of 17 nM and an IC50 [3] of 75 nM.
With `COC[C@H]1CN[C@H](C)CN1CC(=O)N1CC(C)(C)c2cnc(-c3ccc(C)s3)cc21` [Example 148, 1-[3,3-Dimethyl-6-(5-methylthiophen-2-yl)-1H,2H,3H-pyrrolo[3,2-c]pyridin-1-yl]-2-[(2R,5R)-2-(methoxymethyl)-5-methylpiperazin-1-yl]ethan-1-one dihydrochloride] the EC50 [1, 5] was 2000 nM, the IC50 [2] was 45 nM and the IC50 [3] was 360 nM.
Work on `C[C@@H]1CN(CC(=O)N2CC(C)(c3ccccc3)c3ccc(C#N)cc32)[C@@H](C(=O)N2CCOCC2)CN1` (stereo partly drawn) [Example 149, 3-Methyl-1-{2-[(2R,5R)-5-methyl-2-[(morpholin-4-yl)carbonyl]piperazin-1-yl]acetyl}-3-phenyl-2,3-dihydro-1H-indole-6-carbonitrile hydrochloride] yielded an EC50 [1, 4] of 9200 nM, an IC50 ([2]; Probe B AbuRPFK(5&6FAM)-amide) of 130 nM and an IC50 [3] of 55 nM.
